These results are taken from US10316131B2, “Hyperbranched polymer modified with isocyanate linker and mix of short and long chain alkyl polyether” (priority 2014, dated 2019).

A short description of data set [1]: Solubilization measurements with a highthroughput screening robot. The format is physicochemical. On the procedure:
Solubilization measurements were carried out with a highthroughput screening robot. […] After the addition of stirring bars and 24 hours incubation time the samples were filtrated through polypropylene filters in order to separate dissolved active and its solid form. The amount of solubilized active was determined by UV/VIS spectroscopy.

In data set [2] the test system is Puccinia Recondata/Tritici. Put plainly: Greenhouse test of pesticidal activity on infected wheat, suspension concentrates SC1 and SC2. The class given is in vivo, Puccinia Recondata/Tritici on wheat variety Monopol. On the procedure:
An aqueous suspension concentrate (“SC1”) was prepared as in Application Example 1. The pesticidal activity was tested in greenhouse tests on wheat variety Monopol, which was infected with the fungi Puccinia Recondata/Tritici. The plants were treated with SC1 three days after the inoculation at a use rate of […] (200 l water/ha). The use rate of the polymers of the invention was kept constant at 250 g per ha.
The above greenhouse tests were also made with a suspension concenctrate “SC2” of the triazole fungicide 2-[4-(4-chlorophenoxy)-2-(trifluoromethyl)phenyl]-1-(1H-1,2,4-triazol-1-yl)propan-2-ol (“triazole fungicide”) (100 g/ha) instead of fluxapyroxad.

Where [3] appears, read: 10 mg solid active in 3 wt % polymer solution in CIPAC water D, 24 hours, listed as of the active = no polymer.

Regarding `NC(=O)N1c2ccccc2C=Cc2ccccc21` [carbamazepine], in data set [1] (setting [3]), the Solubility of carbamazepine was 181 pmm.
`Cn1cc(C(=O)Nc2ccccc2-c2cc(F)c(F)c(F)c2)c(C(F)F)n1` [fluxapyroxad]: the “% infected leaf area, use rate of active 33%” value in data set [2] (fluxapyroxad SC1, use rate 8.3 pesticide per ha, polymer 250 g per ha, treated three days after inoculation, 7 days after inoculation) was 80%. Further, in data set [2] (fluxapyroxad SC1, use rate 25 pesticide per ha, polymer 250 g per ha, treated three days after inoculation, 7 days after inoculation), the “% infected leaf area, use rate of active 100%” value is listed as 79%. The compound further yielded a Solubility of fluxapyroxad in data set [1] (setting [3]) of 10 pmm.
In the case of `CC(O)(Cn1cncn1)c1ccc(Oc2ccc(Cl)cc2)cc1C(F)(F)F` (centres unmarked) [triazole fungicide, 2-[4-(4-chlorophenoxy)-2-(trifluoromethyl)phenyl]-1-(1H-1,2,4-triazol-1-yl)propan-2-ol], the “% infected leaf area, use rate of active 100%” value in data set [2] (triazole fungicide SC2 (100 g/ha) instead of fluxapyroxad) was found to be 83%. In addition, the “% infected leaf area, use rate of active 33%” value in data set [2] (triazole fungicide SC2 instead of fluxapyroxad, 33% use rate) came to 91%. Besides, in data set [1] (setting [3]), the “Solubility of the triazole fungicide” value was found to be 15 pmm.
In turn, `N#Cc1nn(-c2c(Cl)cc(C(F)(F)F)cc2Cl)c(N)c1[S+]([O-])C(F)(F)F` (centres unmarked) [fipronil] had a Solubility of fipronil in data set [1] of 12 pmm.
